Experimental data published in patent publication US20070098800A1, “Therapeutic compositions” (priority 2002, published 2007).

Legend:
[1] = Synovial fluid and serum drug concentrations after single i.a. injection in arthritic rabbits; details: rabbit, single 0.1 ml i.a. injection
Procedure: (§1) At 3-day intervals over a 3-week period, joint swelling (circumference) is assessed, synovial fluid samples (25 μl) are collected for analysis of salicylate and betamethasone concentrations, and venous blood samples (0.5 ml) are collected for analysis of salicylate and betamethasone serum concentrations and ovalbumin antibody titers. At the end of 3 weeks the animals are sacrificed for histological assessment of joint damage.
(§2) At 3-day intervals over a 3-week period, joint swelling (circumference) was assessed, synovial fluid samples (25 μl) were collected for analysis of salicylate and lidocaine concentrations, and venous blood samples (0.5 ml) were collected for analysis of salicylate and lidocaine serum concentrations and ovalbumin antibody titers. At the end of 3 weeks the animals were sacrificed for histological assessment of joint damage.
At 3-day intervals over a 3-week period, joint swelling (circumference) is assessed, synovial fluid samples (25 μl) are collected for analysis of salicylate and morphine concentrations, and venous blood samples (0.5 ml) are collected for analysis of salicylate and morphine serum concentrations and ovalbumin antibody titers. At the end of 3 weeks the animals are sacrificed for histological assessment of joint damage.
At 3-day intervals over a 3-week period, joint swelling (circumference) is assessed, synovial fluid samples (25 μl) were collected for analysis of salicylate, lidocaine, and morphine concentrations, and venous blood samples (0.5 ml) are collected for analysis of salicylate, lidocaine, and morphine serum concentrations and ovalbumin antibody titers. At the end of 3 weeks the animals are sacrificed for histological assessment of joint damage.

[2] = system: experimental model of arthritis created by injecting ovalbumin into the knees of rabbits; test: Ovalbumin-induced arthritis (chronic synovitis) in rabbit knees: joint swelling, ovalbumin antibody titers, histological joint damage; type: in vivo; details: compared to vehicle controls, during the 3-week period (Example 1)
Procedure: as §1, §2
At 3-day intervals over a 3-week period, joint swelling (circumference) is assessed, synovial fluid samples (25 μl) are collected for analysis of salicylate and morphine concentrations, and venous blood samples (0.5 ml) are collected for analysis of salicylate and morphine serum concentrations and ovalbumin antibody titers. At the end of 3 weeks the animals are sacrificed for histological assessment of joint damage. […]

[3] = sampled at 3-day intervals over 3 weeks

Structure (SMILES): C[C@H]1C[C@H]2[C@@H]3CCC4=CC(=O)C=C[C@]4(C)[C@@]3(F)[C@@H](O)C[C@]2(C)[C@@]1(O)C(=O)COP(=O)([O-])[O-].[Na+].[Na+] [betamethasone, betamethasone sodium phosphate]
- betamethasone levels (synovial fluid and serum) ([1]; after the early time points): undetectable
- betamethasone levels in serum ([1]; early time points): low
- betamethasone levels in synovial fluid ([1]; early time points): low
- joint swelling [2]: significantly reduced
- serum ovalbumin antibody titers [2]: significantly reduced

Structure (SMILES): CN1CC[C@]23c4c5ccc(O)c4O[C@H]2[C@@H](O)C=C[C@H]3[C@H]1C5.O=S(=O)(O)O [morphine, morphine sulfate]
- morphine serum levels [1, 3]: undetectable
- morphine synovial fluid levels [1, 3]: undetectable
